≈ marks a conversion by molar mass, not a printed value. Like-named read-outs stand apart in the source and are kept apart here. Where a SMILES comes first, the peptide text is derived from it. [ ]: non-standard residue; d: D form.
What was measured:
M. intracellulare = assay: MIC against M. intracellulare; format: cell-based, Mycobacterium intracellulare; details: M. intracellulare (ATCC 13950); CAAT media
M. fortuitum = assay: MIC against M. fortuitum; format: cell-based, Mycobacterium fortuitum; details: M. fortuitum (ATCC 6841); CAAT media
A. ruhlandii = format: cell-based, Achromobacter ruhlandii
Description: (§1) The MBEC (after 2-hour treatments) was determined as described in Jones and Wozniak, PsI Produced by Mucoid Pseudomonas aeruginosa Contributes to the Establishment of Biofilms and Immune Evasion, Am. Soc. Microbiol. 2017, 8(3):e00864-17. Meropenem and tobramycin were included as controls and were both poorly active, with MBEC90 values of >256 μg/mL (data not shown).

P. aeruginosa [1] = assay: Time-kill assay in cystic fibrosis patient sputum, P. aeruginosa; format: cell-based, Pseudomonas aeruginosa
How it was run: (§2)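 Time-kill assay run in unfiltered pooled sputum from 5 cystic fibrosis patients, with t=0 plating for baseline CFU and untreated controls. Activity also measured without sputum.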

M. abscessus = assay: MIC against MDR M. abscessus isolates; format: cell-based, Mycobacterium abscessus; details: 7 days; for MIC: AST media (CAAT)
B. gladioli = format: cell-based, Burkholderia gladioli; details: B. gladioli (15); 2-hour treatment
Description: as §1

B. cenocepacia [2] = format: cell-based, Burkholderia cenocepacia
Description: as §1

S. maltophilia [3] = system: S. maltophilia
Mycobacterium species = format: cell-based
B. cenocepacia [4] = assay: MIC by broth microdilution against B. cenocepacia; format: cell-based, Burkholderia cenocepacia; details: B. cenocepacia isolates
How it was run: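 CLSI broth microdilution, with Mueller Hinton Broth replaced by CAA media (with or without NaCl) or CAA plus 2.5% human serum. MIC taken as the lowest peptide concentration suppressing at least 80% of growth relative to control.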

M. avium = assay: MIC against M. avium; format: cell-based, Mycobacterium avium; details: M. avium (ATCC 700898); CAAT media
A. xylosoxidans = assay: Time-kill assay in cystic fibrosis patient sputum, A. xylosoxidans; format: cell-based, Achromobacter xylosoxidans
How it was run: as §2

S. maltophilia [5] = assay: Time-kill assay in cystic fibrosis patient sputum, S. maltophilia; format: cell-based, Stenotrophomonas maltophilia
How it was run: as §2

P. aeruginosa [6] = assay: Serial passage resistance development study, P. aeruginosa; format: cell-based, Pseudomonas aeruginosa; details: P. aeruginosa strain CFS 1292, Day 28
M. tuberculosis = format: cell-based, Mycobacterium tuberculosis

CC[C@H](C)[C@H](NC(=O)[C@@H](CCCNC(=N)N)NC(=O)[C@H](Cc1ccccc1)NC(=O)CNC(=O)CNC(=O)[C@@H](CCCNC(=N)N)NC(=O)[C@H](CCSC)NC(=O)[C@@H]1CCCN1C(=O)[C@@H](CCCNC(=N)N)NC(=O)[C@H](C)NC(=O)[C@@H](CCCNC(=N)N)NC(=O)[C@H](CC(C)C)NC(=O)[C@H](CC(N)=O)NC(=O)[C@@H](CCCNC(=N)N)NC(=O)[C@@H](CCCCN)NC(=O)[C@@H](CCCCN)NC(=O)[C@@H](NC(=O)[C@H](CC(N)=O)NC(=O)[C@@H](NC(=O)[C@H](C)NC(=O)CNC(=O)[C@@H](CCCNC(=N)N)NC(=O)[C@@H](NC(=O)[C@H](Cc1ccccc1)NC(=O)[C@@H](NC(=O)[C@@H](CCCCN)NC(=O)[C@@H](CCCNC(=N)N)NC(=O)[C@H](CO)NC(=O)[C@@H](CCCCN)NC(=O)[C@@H](CCCCN)NC(=O)[C@@H](CCCCN)NC(=O)[C@H](CO)NC(=O)[C@H](CC(C)C)NC(=O)[C@@H](CCCCN)NC(=O)[C@@H](CCCNC(=N)N)NC(=O)[C@@H](CCCNC(=N)N)NC(=O)[C@@H](CCCCN)NC(=O)[C@@H](N)CCSC)[C@@H](C)CC)[C@@H](C)O)C(C)C)C(C)C)C(=O)O [AM3] (H-M[dK][dR][dR][dK]LS[dK][dK][dK]S[dR][dK]IFT[dR]GAVNV[dK][dK][dR]NL[dR]A[dR]PM[dR]GGF[dR]I-OH; N-terminus and C-terminus assumed)
MIC (M. intracellulare): 2 µg/mL (≈ 0.438 µM)
MIC (M. fortuitum): 2 µg/mL (≈ 0.438 µM)
MBEC50 (A. ruhlandii): 16 µg/mL
MBEC90 (A. ruhlandii): 16 µg/mL
MBEC Range (A. ruhlandii): 1 to 32 µg/mL
effect of sputum on antibacterial activity (P. aeruginosa [1]; 10% CF sputum vs no sputum): not inhibited
Log10 CFU/mL of sputum (P. aeruginosa [1]; absence of sputum, 1 hr): 2.3 Log10 CFU/mL of sputum
Log10 CFU/mL of sputum (P. aeruginosa [1]; absence of sputum, 3 hr): 2.3 Log10 CFU/mL of sputum
Log10 CFU/mL of sputum (P. aeruginosa [1]; absence of sputum, 24 hr): 2.3 Log10 CFU/mL of sputum
Log10 CFU/mL of sputum (P. aeruginosa [1]; presence of 10% sputum, 1 hr): 2.3 Log10 CFU/mL of sputum
Log10 CFU/mL of sputum (P. aeruginosa [1]; presence of 10% sputum, 3 hr): 2.3 Log10 CFU/mL of sputum
Log10 CFU/mL of sputum (P. aeruginosa [1]; presence of 10% sputum, 24 hr): 2.3 Log10 CFU/mL of sputum
killing by 1 hour, maintained by 24 hours (P. aeruginosa [1]; time-kill): complete killing
activity (MIC) against M. abscessus (M. abscessus; 5 clinical MDR strains and 1 ATCC strain, CAAT): highly active
MIC (M. abscessus; M. abscessus strain BK51402): 1 µg/mL (≈ 0.219 µM)
MIC (M. abscessus; M. abscessus strain BK51403 (ATCC 19977)): 4 µg/mL (≈ 0.875 µM)
MIC (M. abscessus; M. abscessus strain BK51408): 4 µg/mL (≈ 0.875 µM)
MIC (M. abscessus; M. abscessus strain BK55096): 2 µg/mL (≈ 0.438 µM)
MIC (M. abscessus; M. abscessus strain BK55691): 1 µg/mL (≈ 0.219 µM)
MIC (M. abscessus; M. abscessus strain BK58156): 1 µg/mL (≈ 0.219 µM)
MBEC50 (B. gladioli): 4 µg/mL
MBEC90 (B. gladioli): 16 µg/mL
MBEC50 (B. cenocepacia [2]): 16 µg/mL
MBEC90 (B. cenocepacia [2]): 32 µg/mL
MBEC Range (B. cenocepacia [2]): 1 to 32 µg/mL
MIC50 (S. maltophilia [3]; S. maltophilia isolates): 0.5 µg/mL (≈ 0.109 µM)
MIC90 (S. maltophilia [3]; S. maltophilia isolates): 1 µg/mL (≈ 0.219 µM)
MIC Range (S. maltophilia [3]; S. maltophilia isolates, in µg/mL): 0.016-2
MIC (S. maltophilia [3]; S. maltophilia test organism of the sputum time-kill assay): AM3 (MIC = 0.25)
activity (MIC) against S. maltophilia isolates (S. maltophilia [3]; all tested isolates, Tables 8-12): highly active
activity (MIC) against Mycobacterium species (Mycobacterium species): highest activity
MIC50 (B. cenocepacia [4]): > 128 µg/mL
MIC90 (B. cenocepacia [4]): > 128 µg/mL
MIC (M. avium): 1 Tg/mL
effect of sputum on antibacterial activity (A. xylosoxidans; 10% CF sputum vs no sputum): none of GN370, AM1, AM2, and AM3 was inhibited
Log10 CFU/mL of sputum (A. xylosoxidans; absence of sputum, 1 hr): 4.3 Log10 CFU/mL of sputum
Log10 CFU/mL of sputum (A. xylosoxidans; absence of sputum, 3 hr): 3.3 Log10 CFU/mL of sputum
Log10 CFU/mL of sputum (A. xylosoxidans; absence of sputum, 24 hr): 2.3 Log10 CFU/mL of sputum
Log10 CFU/mL of sputum (A. xylosoxidans; presence of 10% sputum, 1 hr): 2.3 Log10 CFU/mL of sputum
Log10 CFU/mL of sputum (A. xylosoxidans; presence of 10% sputum, 3 hr): 2.3 Log10 CFU/mL of sputum
Log10 CFU/mL of sputum (A. xylosoxidans; presence of 10% sputum, 24 hr): 2.3 Log10 CFU/mL of sputum
killing by 1 hour, maintained at 24 hours (A. xylosoxidans; time-kill): complete killing
effect of sputum on antibacterial activity (S. maltophilia [5]; 10% CF sputum vs no sputum): none of GN370, AM1, AM2, and AM3 was inhibited
Log10 CFU/mL of sputum (S. maltophilia [5]; absence of sputum, 1 hr): 2.3 Log10 CFU/mL of sputum
Log10 CFU/mL of sputum (S. maltophilia [5]; absence of sputum, 3 hr): 2.3 Log10 CFU/mL of sputum
Log10 CFU/mL of sputum (S. maltophilia [5]; absence of sputum, 24 hr): 2.3 Log10 CFU/mL of sputum
Log10 CFU/mL of sputum (S. maltophilia [5]; presence of 10% sputum, 1 hr): 2.3 Log10 CFU/mL of sputum
Log10 CFU/mL of sputum (S. maltophilia [5]; presence of 10% sputum, 3 hr): 2.3 Log10 CFU/mL of sputum
Log10 CFU/mL of sputum (S. maltophilia [5]; presence of 10% sputum, 24 hr): 2.3 Log10 CFU/mL of sputum
killing by 1 hour, maintained at 24 hours (S. maltophilia [5]; time-kill): complete killing
change in MIC over serial passage (P. aeruginosa [6]): no significant changes
MIC (M. tuberculosis; M. tuberculosis (ATCC 35817), (ADC, T) media): 8 µg/mL (≈ 1.75 µM)
MIC (M. tuberculosis; M. tuberculosis strain TN8109_LB (MDR), 7H9 broth, 20 days): 16 µg/mL (≈ 3.5 µM)
MIC (M. tuberculosis; M. tuberculosis strain TN8562_M33 (susc), 7H9 broth, 20 days): 16 µg/mL (≈ 3.5 µM)
MIC (M. tuberculosis; M. tuberculosis strain TN10525_LL (MDR), 7H9 broth, 20 days): 64 µg/mL (≈ 14 µM)
MIC (M. tuberculosis; M. tuberculosis strain TN10571_KY (MDR), 7H9 broth, 20 days): 16 µg/mL (≈ 3.5 µM)
MIC (M. tuberculosis; M. tuberculosis strain TN12657_KQ15 (IS), 7H9 broth, 20 days): 16 µg/mL (≈ 3.5 µM)
MIC (M. tuberculosis; M. tuberculosis strain TN13923_HD17 (susc), 7H9 broth, 20 days): 32 µg/mL (≈ 7 µM)
MIC (M. tuberculosis; M. tuberculosis strain TN18349_W738 (susc), 7H9 broth, 20 days): 4 µg/mL (≈ 0.875 µM)
MIC (M. tuberculosis; M. tuberculosis strain TN34503_001 (susc), 7H9 broth, 20 days): 16 µg/mL (≈ 3.5 µM)

— patent US20240181022A1, “AMURINS LYSINS, AND LYSIN-ANTIMICROBIAL PEPTIDE (AMP) CONSTRUCTS ACTIVE AGAINST GRAM-NEGATIVE BACTERIA” (priority 2021, published 2024)
